Data reported in ChEMBL document CHEMBL1156245, “Structure-activity relationships for substrate-based inhibitors of human complement factor B” (J Med Chem, 2009).
Values belong to the compound of their own block, whether it stands above or below them. Peptide text beside a SMILES is read from it.

How the values were obtained:
Complement factor B [1] = target: T1, Complement factor B (Homo sapiens, UniProt P00751); test: Inhibition of human complement factor B treated for 5 mins before addition of substrate Ac-SHLGLAR-pNA at pH 9.5 by chromogenic assay
Complement factor B [2] = target: T1, Complement factor B; test: Inhibition of human C3/C5 convertase assessed as inhibition of C3 cleavage
Complement factor B [3] = target: T1, Complement factor B; test: Inhibition of human C3 convertase assessed as inhibition of C3a and C3b fragment production at pH 7.4 after 30 mins by SDS-PAGE using 7% (w/v) polyacrylamide gel
[4] = Inhibition of human alternative complement system-mediated membrane attack complex formation by ELISA
[5] = Inhibition of alternative complement system-mediated hemolysis of rabbit erythrocytes assessed as haemoglobin release after 30 mins by UV/vis spectrophotometry; set-up: species or system Oryctolagus cuniculus
[6] = Metabolic stability in human serum assessed as compound remaining at 1 mM after 3 hrs by LC-MS analysis; type: ADME, cell-free; details: read-out: Stability
[7] = Inhibition of cobra C3/C5 convertase assessed as inhibition of C3a and C5a fragment formation; set-up: species or system Naja naja
Complement factor B [8] = target: T1, Complement factor B; test: Inhibition of human complement factor B at pH 9.5 by chromogenic assay
[9] = Solubility in water; type: physicochemical; details: buffer
Complement factor B [10] = target: T1, Complement factor B; test: Inhibition of human C3 convertase assessed as inhibition of C3a and C3b fragment production at pH 7.4 after 30 mins by SDS-PAGE

T1 sequence (P00751 whole entry): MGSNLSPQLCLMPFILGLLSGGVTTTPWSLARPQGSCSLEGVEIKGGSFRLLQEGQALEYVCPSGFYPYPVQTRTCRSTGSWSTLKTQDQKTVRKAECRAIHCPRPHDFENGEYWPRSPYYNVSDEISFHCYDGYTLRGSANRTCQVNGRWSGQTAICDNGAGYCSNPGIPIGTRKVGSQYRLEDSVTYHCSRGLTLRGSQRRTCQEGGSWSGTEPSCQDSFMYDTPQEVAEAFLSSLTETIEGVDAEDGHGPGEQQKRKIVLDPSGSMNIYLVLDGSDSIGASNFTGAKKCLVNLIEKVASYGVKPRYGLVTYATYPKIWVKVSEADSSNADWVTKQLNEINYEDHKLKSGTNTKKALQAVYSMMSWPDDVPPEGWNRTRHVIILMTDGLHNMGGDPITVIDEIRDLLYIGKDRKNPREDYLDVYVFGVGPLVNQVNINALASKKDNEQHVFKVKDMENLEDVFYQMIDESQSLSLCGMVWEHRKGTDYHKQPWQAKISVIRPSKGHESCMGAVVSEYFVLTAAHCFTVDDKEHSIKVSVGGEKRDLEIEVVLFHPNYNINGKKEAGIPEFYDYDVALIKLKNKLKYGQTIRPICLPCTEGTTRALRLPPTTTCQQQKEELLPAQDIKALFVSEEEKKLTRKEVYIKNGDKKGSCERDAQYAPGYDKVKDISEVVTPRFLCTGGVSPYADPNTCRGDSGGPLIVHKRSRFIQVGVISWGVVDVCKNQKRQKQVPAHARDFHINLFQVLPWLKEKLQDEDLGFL

Compound: Ac-SHLGLAR-OH
- remaining at 3 h, 1000 µM [6]: 80%
- IC50 [4]: 21.1 µM
- IC50 (Complement factor B [1]): 19 µM
- IC50 [5]: 243 µM

Compound: CC(=O)N[C@@H](Cc1ccc(F)cc1)C(=O)N[C@@H](Cc1cnc[nH]1)C(=O)N[C@@H](CC(C)C)C(=O)NCC(=O)N[C@@H](CC(C)C)C(=O)N[C@@H](C)C(=O)N[C@@H](CCCN=C(N)N)C(=O)O (HELM PEPTIDE1{[ac].[O=C([C@H](Cc1ccc(F)cc1)N[*:1])[*:2]].H.L.G.L.A.R}$$$$V2.0)
- IC50 (Complement factor B [1]): 13 µM

Compound: CC(=O)N[C@@H](CC(C)C)C(=O)N[C@@H](CC(C)C)C(=O)N[C@@H](C)C(=O)N[C@@H](CCCN=C(N)N)C(=O)O (Ac-LLAR-OH)
- IC50 (Complement factor B [1]): 12 µM

Compound: CC(=O)N[C@@H](CO)C(=O)N[C@@H](Cc1cnc[nH]1)C(=O)N[C@@H](CC(C)C)C(=O)NCC(=O)N[C@@H](CC(C)C)C(=O)N[C@@H](C)C(=O)N[C@@H](CCCN=C(N)N)C(=O)Nc1ccc([N+](=O)[O-])cc1 (HELM PEPTIDE1{[ac].S.H.L.G.L.A.R.[O=[N+]([O-])c1ccc(N[*:1])cc1]}$$$$V2.0)
- IC50 (Complement factor B [8]): 19 µM

Compound: Ac-RLLLAR-OH [listing 2 of 2 here]
- remaining at 3 h, 1000 µM [6]: 80%
- solubility [9]: Soluble
- IC50 (Complement factor B [10]): 50 µM
- IC50 (Complement factor B [1]): 0.6 µM

Compound: Ac-LLLAR-OH
- IC50 (Complement factor B [1]): 3 µM

Compound: CC(=O)N[C@@H](CCCNC(=N)N)C(=O)N[C@@H](CC(C)C)C(=O)N[C@@H](CC(C)(C)C)C(=O)N[C@@H](CC(C)C)C(=O)N[C@@H](C)C(=O)N[C@@H](CCCNC(=N)N)C(=O)O (HELM PEPTIDE1{[ac].R.L.[CC(C)(C)C[C@H](N[*:1])C(=O)[*:2]].L.A.R}$$$$V2.0)
- inhibition (Complement factor B [3]): Dose-dependent effect
- IC50 [4]: 0.32 µM
- IC50 (Complement factor B [10]): 10 µM
- IC50 (Complement factor B [1]): 0.25 µM
- IC50 [5]: 9.7 µM

The next lines start with results.

- IC50 (Complement factor B [1]): 7 µM
Compound: Ac-RLLLGR-OH

- IC50 (Complement factor B [1]): 5 µM
Compound: CC(C)C[C@H](NC(=O)[C@H](CCC1CCCCC1)NC(=O)[C@H](CC(C)C)NC(=O)[C@H](Cc1cnc[nH]1)NC(=O)[C@@H](N)CO)C(=O)N[C@@H](C)C(=O)N[C@@H](CCCN=C(N)N)C(=O)O (HELM PEPTIDE1{S.H.L.[O=C([C@H](CCC1CCCCC1)N[*:1])[*:2]].L.A.R}$$$$V2.0)

- IC50 (Complement factor B [2]): 12 µM
Compound: CC[C@H](C)[C@H](N)C(=O)N[C@H]1CSSC[C@@H](C(=O)N[C@H](C(N)=O)[C@@H](C)O)NC(=O)[C@H](CCCN=C(N)N)NC(=O)[C@H](Cc2cnc[nH]2)NC(=O)[C@H](Cc2cnc[nH]2)NC(=O)CNC(=O)[C@H](Cc2c[nH]c3ccccc23)NC(=O)[C@H](CC(=O)O)NC(=O)[C@H](CCC(N)=O)NC(=O)[C@H](C(C)C)NC(=O)[C@H](C(C)C)NC1=O [COMPSTATIN]

- inhibition (Complement factor B [3]): Dose-dependent effect
- IC50 [4]: 1 µM
Compound: Ac-RLLLAR-OH [listing 1 of 2 here]
- IC50 [5]: 20.8 µM

- IC50 (Complement factor B [1]): 3 µM
Compound: Ac-HLLLAR-OH

- IC50 [7]: 4 µM
Compound: N=C(N)Nc1ccc(C(=O)Oc2ccc3cc(C(=N)N)ccc3c2)cc1

- IC50 (Complement factor B [1]): 5 µM
Compound: CCCC[C@H](NC(=O)[C@H](Cc1cnc[nH]1)NC(=O)[C@H](CO)NC(C)=O)C(=O)N[C@@H](CC(C)C)C(=O)N[C@@H](CC(C)C)C(=O)N[C@@H](C)C(=O)N[C@@H](CCCNC(=N)N)C(=O)O (HELM PEPTIDE1{[ac].S.H.[Nle].L.L.A.R}$$$$V2.0)

- IC50 (Complement factor B [1]): 4 µM
Compound: Ac-SHLLLAR-OH

- IC50 (Complement factor B [1]): 23 µM
Compound: Ac-FHLGLAR-OH
